pIC50: −log10 of the molar value.
Test system: 217524-143-R1-J4-PDC spheroids with HUVEC/MSC, viability
Test: Anticancer human tumor 217524-143-R1-J4-PDC patient-derived pancreatic carcinoma cell line growth inhibition [CLK]
Conditions: for pIC50: curve of first compound; for viability, T/C: stronger effect = lower value
Method in brief: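 Multi-cell-type spheroids combined patient-derived tumor cells with HUVEC endothelial cells and human mesenchymal stem cells. Paired agents were dosed in half-log steps down from about clinical Cmax, or from 10 microM where Cmax was unknown.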

[1] = second compound 0.0316 µM, first compound 0.0316 µM
[2] = second compound 0.0316 µM, first compound 0.1 µM
[3] = second compound 0.0316 µM, first compound 0.316 µM
[4] = second compound 0.0316 µM, first compound 1 µM
[5] = second compound 0.0316 µM, first compound 3.16 µM
[6] = second compound 0.0316 µM, first compound 10 µM
[7] = second compound 0.1 µM, first compound 0.0316 µM
[8] = second compound 0.1 µM, first compound 0.1 µM
[9] = second compound 0.1 µM, first compound 0.316 µM
[10] = second compound 0.1 µM, first compound 1 µM
[11] = second compound 0.1 µM, first compound 3.16 µM
[12] = second compound 0.1 µM, first compound 10 µM
[13] = second compound 0.316 µM, first compound 0.0316 µM
[14] = second compound 0.316 µM, first compound 0.1 µM
[15] = second compound 0.316 µM, first compound 0.316 µM
[16] = second compound 0.316 µM, first compound 1 µM
[17] = second compound 0.316 µM, first compound 3.16 µM
[18] = second compound 0.316 µM, first compound 10 µM
[19] = second compound 1 µM, first compound 0.0316 µM
[20] = second compound 1 µM, first compound 0.1 µM
[21] = second compound 1 µM, first compound 0.316 µM
[22] = second compound 1 µM, first compound 1 µM
[23] = second compound 1 µM, first compound 3.16 µM
[24] = second compound 1 µM, first compound 10 µM
[25] = second compound 3.16 µM, first compound 0.0316 µM
[26] = second compound 3.16 µM, first compound 0.1 µM
[27] = second compound 3.16 µM, first compound 0.316 µM
[28] = second compound 3.16 µM, first compound 1 µM
[29] = second compound 3.16 µM, first compound 3.16 µM
[30] = second compound 3.16 µM, first compound 10 µM
[31] = second compound 10 µM, first compound 0.0316 µM
[32] = second compound 10 µM, first compound 0.1 µM
[33] = second compound 10 µM, first compound 0.316 µM
[34] = second compound 10 µM, first compound 1 µM
[35] = second compound 10 µM, first compound 3.16 µM
[36] = second compound 10 µM, first compound 10 µM
[37] = second compound 0.0316 µM, first compound 0.00316 µM
[38] = second compound 0.0316 µM, first compound 0.01 µM
[39] = second compound 0.1 µM, first compound 0.00316 µM
[40] = second compound 0.1 µM, first compound 0.01 µM
[41] = second compound 0.316 µM, first compound 0.00316 µM
[42] = second compound 0.316 µM, first compound 0.01 µM
[43] = second compound 1 µM, first compound 0.00316 µM
[44] = second compound 1 µM, first compound 0.01 µM
[45] = second compound 3.16 µM, first compound 0.00316 µM
[46] = second compound 3.16 µM, first compound 0.01 µM
[47] = second compound 10 µM, first compound 0.00316 µM
[48] = second compound 10 µM, first compound 0.01 µM
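Note: spheroids exposed to agents for seven days before reading.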
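Throughout, for viability, T/C: 100% = DMSO vehicle control viability.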

Structure (SMILES): CC(CO)NC(=O)c1cc(-c2ccc(Cl)cc2)nn(-c2cnn(C)c2)c1=O (stereo not drawn) + CNC(=O)c1ccc(Nc2nc(OC3CCCC3)c3c(-c4ccc5nc(C)oc5c4)c[nH]c3n2)c(OC)c1
- pIC50 (second compound 0.0316 µM): < 5.00
- pIC50 (second compound 0.1 µM): > 7.50
- pIC50 (second compound 0.316 µM): > 7.50
- pIC50 (second compound 1 µM): > 7.50
- pIC50 (second compound 3.16 µM): > 7.50
- pIC50 (second compound 10 µM): > 7.50
- viability, T/C [1]: 101%
- viability, T/C [2]: 81.4%
- viability, T/C [3]: 86.5%
- viability, T/C [4]: 105%
- viability, T/C [5]: 106%
- viability, T/C [6]: 84.2%
- viability, T/C [7]: 44.8%
- viability, T/C [8]: 42.2%
- viability, T/C [9]: 46.1%
- viability, T/C [10]: 51.3%
- viability, T/C [11]: 47.4%
- viability, T/C [12]: 43.5%
- viability, T/C [13]: 48.2%
- viability, T/C [14]: 39.8%
- viability, T/C [15]: 44.8%
- viability, T/C [16]: 40.1%
- viability, T/C [17]: 38.9%
- viability, T/C [18]: 38.7%
- viability, T/C [19]: 26.2%
- viability, T/C [20]: 30.1%
- viability, T/C [21]: 26.2%
- viability, T/C [22]: 32.7%
- viability, T/C [23]: 28.3%
- viability, T/C [24]: 25%
- viability, T/C [25]: 33.1%
- viability, T/C [26]: 26.2%
- viability, T/C [27]: 32.4%
- viability, T/C [28]: 31.8%
- viability, T/C [29]: 28.8%
- viability, T/C [30]: 20.9%
- viability, T/C [31]: 31.3%
- viability, T/C [32]: 25.7%
- viability, T/C [33]: 24.1%
- viability, T/C [34]: 24.4%
- viability, T/C [35]: 24.7%
- viability, T/C [36]: 20.6%

Structure (SMILES): CC(Nc1ccc2c(c1)OCCn1cc(N3C(=O)OCC3C(F)F)nc1-2)C(N)=O (stereo not drawn) + CNC(=O)c1ccc(Nc2nc(OC3CCCC3)c3c(-c4ccc5nc(C)oc5c4)c[nH]c3n2)c(OC)c1
- pIC50 (second compound 0.0316 µM): 7.25
- pIC50 (second compound 0.1 µM): > 7.50
- pIC50 (second compound 0.316 µM): > 7.50
- pIC50 (second compound 1 µM): > 7.50
- pIC50 (second compound 3.16 µM): > 7.50
- pIC50 (second compound 10 µM): > 7.50
- viability, T/C [1]: 63.3%
- viability, T/C [2]: 36.5%
- viability, T/C [3]: 15.6%
- viability, T/C [4]: 8.68%
- viability, T/C [5]: 6.12%
- viability, T/C [6]: 4.83%
- viability, T/C [7]: 31.9%
- viability, T/C [8]: 20.7%
- viability, T/C [9]: 11.4%
- viability, T/C [10]: 7.98%
- viability, T/C [11]: 5.53%
- viability, T/C [12]: 4.2%
- viability, T/C [13]: 24.7%
- viability, T/C [14]: 13.8%
- viability, T/C [15]: 7.07%
- viability, T/C [16]: 4.72%
- viability, T/C [17]: 3.59%
- viability, T/C [18]: 3.01%
- viability, T/C [19]: 16.8%
- viability, T/C [20]: 10.2%
- viability, T/C [21]: 5.1%
- viability, T/C [22]: 3.22%
- viability, T/C [23]: 3.05%
- viability, T/C [24]: 2.02%
- viability, T/C [25]: 17.7%
- viability, T/C [26]: 9.35%
- viability, T/C [27]: 4.79%
- viability, T/C [28]: 3.52%
- viability, T/C [29]: 2.61%
- viability, T/C [30]: 2.12%
- viability, T/C [31]: 18.6%
- viability, T/C [32]: 10.6%
- viability, T/C [33]: 6.17%
- viability, T/C [34]: 2.83%
- viability, T/C [35]: 3.46%
- viability, T/C [36]: 2.14%

Structure (SMILES): CCN1CCN(Cc2ccc(Nc3ncc(F)c(-c4cc(F)c5nc(C)n(C(C)C)c5c4)n3)nc2)CC1 + CNC(=O)c1ccc(Nc2nc(OC3CCCC3)c3c(-c4ccc5nc(C)oc5c4)c[nH]c3n2)c(OC)c1
- pIC50 (second compound 0.0316 µM): 6.88
- pIC50 (second compound 0.1 µM): > 8.50
- pIC50 (second compound 0.316 µM): > 8.50
- pIC50 (second compound 1 µM): > 8.50
- pIC50 (second compound 3.16 µM): > 8.50
- pIC50 (second compound 10 µM): > 8.50
- viability, T/C [37]: 84.8%
- viability, T/C [38]: 71.2%
- viability, T/C [1]: 68.4%
- viability, T/C [2]: 52.4%
- viability, T/C [3]: 40%
- viability, T/C [4]: 38.4%
- viability, T/C [39]: 50.3%
- viability, T/C [40]: 42%
- viability, T/C [7]: 35.6%
- viability, T/C [8]: 27.8%
- viability, T/C [9]: 37.2%
- viability, T/C [10]: 36%
- viability, T/C [41]: 46.8%
- viability, T/C [42]: 34.8%
- viability, T/C [13]: 30.8%
- viability, T/C [14]: 25.7%
- viability, T/C [15]: 30.5%
- viability, T/C [16]: 32%
- viability, T/C [43]: 28.4%
- viability, T/C [44]: 26.2%
- viability, T/C [19]: 28.5%
- viability, T/C [20]: 25.2%
- viability, T/C [21]: 25.2%
- viability, T/C [22]: 26.3%
- viability, T/C [45]: 25.3%
- viability, T/C [46]: 24.8%
- viability, T/C [25]: 23.9%
- viability, T/C [26]: 21.1%
- viability, T/C [27]: 21.6%
- viability, T/C [28]: 22.2%
- viability, T/C [47]: 24.3%
- viability, T/C [48]: 23%
- viability, T/C [31]: 23.8%
- viability, T/C [32]: 21.9%
- viability, T/C [33]: 21.4%
- viability, T/C [34]: 26.4%

Structure (SMILES): COc1c(OCCCN2CCOCC2)ccc2c3n(c(=NC(=O)c4cnc(N)nc4)nc12)CCN3 + CNC(=O)c1ccc(Nc2nc(OC3CCCC3)c3c(-c4ccc5nc(C)oc5c4)c[nH]c3n2)c(OC)c1
- pIC50 (second compound 0.0316 µM): 8.16
- pIC50 (second compound 0.1 µM): > 8.50
- pIC50 (second compound 0.316 µM): > 8.50
- pIC50 (second compound 1 µM): > 8.50
- pIC50 (second compound 3.16 µM): > 8.50
- pIC50 (second compound 10 µM): > 8.50
- viability, T/C [37]: 74.9%
- viability, T/C [38]: 38.7%
- viability, T/C [1]: 10.4%
- viability, T/C [2]: 4.29%
- viability, T/C [3]: 2.9%
- viability, T/C [4]: 2.31%
- viability, T/C [39]: 36.7%
- viability, T/C [40]: 21.8%
- viability, T/C [7]: 9.86%
- viability, T/C [8]: 3.54%
- viability, T/C [9]: 3.16%
- viability, T/C [10]: 2.09%
- viability, T/C [41]: 22.1%
- viability, T/C [42]: 14.2%
- viability, T/C [13]: 7.78%
- viability, T/C [14]: 3.17%
- viability, T/C [15]: 2.58%
- viability, T/C [16]: 2.49%
- viability, T/C [43]: 19.9%
- viability, T/C [44]: 10.9%
- viability, T/C [19]: 4.57%
- viability, T/C [20]: 3.24%
- viability, T/C [21]: 1.78%
- viability, T/C [22]: 1.77%
- viability, T/C [45]: 21%
- viability, T/C [46]: 11.8%
- viability, T/C [25]: 5.14%
- viability, T/C [26]: 2.24%
- viability, T/C [27]: 1.69%
- viability, T/C [28]: 1.26%
- viability, T/C [47]: 16.7%
- viability, T/C [48]: 9.36%
- viability, T/C [31]: 5%
- viability, T/C [32]: 2.58%
- viability, T/C [33]: 1.86%
- viability, T/C [34]: 1.37%
